For 18 compounds, EC50 and CC50 results are on record in patent publication US11312727B1, “Macrocyclic flu endonuclease inhibitors” (Janssen BioPharma, Inc., priority 2018, dated 2022).

Data set [1] has as its system Influenza strain A549 A/WSN/33 (H1N1). The experiment in a line: microbe, parasite or virus in culture. The format is cell-based. To be noted: A549 cells, influenza A/WSN/33 (H1N1), 20 hours incubation, read-out: A549_A(H1N1) EC50.
A short description of the next data set: in vitro. To be noted: human, CC50, uninfected A549 cells, CellTiter-Glo. (Cellular ATP, detected with luciferase, serves as a proxy for viable cell number.)

Read-outs that look alike come from different tables or passages of the source.

For orientation: EC50 means the concentration giving half of the maximal effect. By CC50 is commonly meant the concentration that lowers cell viability or growth by half. On to `O=C1c2c(O)c(=O)ccn2N2CN1CC/C=C\COc1cccc3c1[C@@H]2c1ccccc1SC3` (single isomer, unassigned) [Compound 37A, (1*R,13Z)-7-hydroxy-16-oxa-23-thia-2,3,10-triazahexacyclo[15.12.1.12,10.03,8.021,30.024,29]hentriaconta-4,7,13,17,19,21(30),24(29),25,27-nonaene-6,9-dione], for which, in data set [1] (Influenza A virus, A549, 20 h), the half-maximal effective concentration (EC50) came to 12200 nM. Also, the CC50 in the data set “in vitro” is over 2000 nM.
In the same order, the values of `O=C1c2c(O)c(=O)ccn2N2CN1CC/C=C\COc1cccc3c1[C@H]2c1ccccc1SC3` (single isomer, unassigned) [Compound 37B, (1*S,13Z)-7-hydroxy-16-oxa-23-thia-2,3,10-triazahexacyclo[15.12.1.12,10.03,8.021,30.024,29]hentriaconta-4,7,13,17,19,21(30),24(29),25,27-nonaene-6,9-dione] are 4 nM and over 200 nM.
In the case of `O=C1c2c(O)c(=O)ccn2N2CN1CC/C=C/COc1cccc3c1[C@@H]2c1ccccc1SC3` (single isomer, unassigned) [Compound 37C], the EC50 in data set [1] (Influenza A virus, A549, 20 h) was over 1000 nM. The compound further displayed a 50% cytotoxic concentration (CC50) in “in vitro” of over 2000 nM.
In the same order, the values of `O=C1c2c(O)c(=O)ccn2N2CN1CC/C=C/COc1cccc3c1[C@H]2c1ccccc1SC3` (single isomer, unassigned) [Compound 37D, (1*S,13E)-7-hydroxy-16-oxa-23-thia-2,3,10-triazahexacyclo[15.12.1.12,10.03,8.021,30.024,29]hentriaconta-4,7,13,17,19,21(30),24(29),25,27-nonaene-6,9-dione] are 1 nM and over 200 nM.
In the same order, the values of `C/C1=C/COc2ccccc2[C@@H](c2ccccc2)N2CN(C1)C(=O)c1c(O)c(=O)ccn12` (single isomer, unassigned) [Compound 38A, (18*R,Z)-12-hydroxy-8-methyl-18-phenyl-6,9-dihydro-18H-10,17-methanobenzo[b]pyrido[1,2-f][1]oxa[5,6,9]triazacyclotridecine-11,13-dione] are over 1000 nM and over 2000 nM.
In the same order, the values of `C/C1=C/COc2ccccc2[C@H](c2ccccc2)N2CN(C1)C(=O)c1c(O)c(=O)ccn12` (single isomer, unassigned) [Compound 38B, (18*S,Z)-12-hydroxy-8-methyl-18-phenyl-6,9-dihydro-18H-10,17-methanobenzo[b]pyrido[1,2-f][1]oxa[5,6,9]triazacyclotridecine-11,13-dione] are 26 nM and over 2000 nM.
Consider `O=C1c2c(O)c(=O)ccn2N2CN1CCCCCc1ccccc1[C@@H]2c1ccccn1` (single isomer, unassigned) [Compound 40A, (17*R)-4-hydroxy-16-(pyridin-2-yl)-7,8,9,10,11,16-hexahydro-6,17-methanobenzo[k]pyrido[1,2-b][1,2,5]triazacyclotridecine-3,5-dione], for which the half-maximal effective concentration (EC50) in data set [1] (Influenza A virus, A549, 20 h) was 30 nM. The compound also gave a cytotoxic concentration (CC50) in “in vitro” of over 2000 nM.
In the same order, the values of `O=C1c2c(O)c(=O)ccn2N2CN1CCCCCc1ccccc1[C@H]2c1ccccn1` (single isomer, unassigned) [Compound 40B, (17*S)-4-hydroxy-16-(pyridin-2-yl)-7,8,9,10,11,16-hexahydro-6,17-methanobenzo[k]pyrido[1,2-b][1,2,5]triazacyclotridecine-3,5-dione] are over 1000 nM and over 2000 nM.
In the case of `O=C1c2c(O)c(=O)ccn2N2CN1C/C=C\COc1cc(F)c(F)cc1[C@H]2c1ccccc1` (single isomer, unassigned) [Compound 41A, (18*R,Z)-2,3-difluoro-12-hydroxy-18-phenyl-6,9-dihydro-18H-10,17-methanobenzo[b]pyrido[1,2-f][1]oxa[5,6,9]triazacyclotridecine-11,13-dione], the EC50 in data set [1] (Influenza A virus, A549, 20 h) turned out to be 294 nM. The compound further displayed a half-maximal cytotoxic concentration (CC50) in “in vitro” of over 2000 nM.
Taken in the same sequence, the figures for `O=C1c2c(O)c(=O)ccn2N2CN1C/C=C\COc1cc(F)c(F)cc1[C@@H]2c1ccccc1` (single isomer, unassigned) [Compound 41B, (18*S,Z)-2,3-difluoro-12-hydroxy-18-phenyl-6,9-dihydro-18H-10,17-methanobenzo[b]pyrido[1,2-f][1]oxa[5,6,9]triazacyclotridecine-11,13-dione] were 6 nM and over 2000 nM.
Taken in the same sequence, the figures for `C/C1=C/CN2CN([C@H](c3ccccc3)c3ccccc3OC1)n1ccc(=O)c(O)c1C2=O` (single isomer, unassigned) [Compound 44A, (18*R,*Z)-12-hydroxy-7-methyl-18-phenyl-6,9-dihydro-18H-10,17-methanobenzo[b]pyrido[1,2-f][1]oxa[5,6,9]triazacyclotridecine-11,13-dione] were over 100 nM and over 200 nM.
With `C/C1=C/CN2CN([C@@H](c3ccccc3)c3ccccc3OC1)n1ccc(=O)c(O)c1C2=O` (single isomer, unassigned) [Compound 44B, (18*S,*Z)-12-hydroxy-7-methyl-18-phenyl-6,9-dihydro-18H-10,17-methanobenzo[b]pyrido[1,2-f][1]oxa[5,6,9]triazacyclotridecine-11,13-dione], in data set [1] (Influenza A virus, A549, 20 h), the concentration for a half-maximal effect (EC50) is over 10000 nM. The compound further came in with a CC50 in the data set “in vitro” of over 20000 nM.
Taken in the same sequence, the figures for `O=C1c2c(O)c(=O)ccn2N2CN1C/C=C\COc1ccccc1[C@H]2c1ccc(F)c(F)c1` (single isomer, unassigned) [Compound 45A, (18*R,Z)-18-(3,4-difluorophenyl)-12-hydroxy-6,9-dihydro-18H-10,17-methanobenzo[b]pyrido[1,2-f][1]oxa[5,6,9]triazacyclotridecine-11,13-dione] were over 1000 nM and over 2000 nM.
Taken in the same sequence, the figures for `O=C1c2c(O)c(=O)ccn2N2CN1C/C=C\COc1ccccc1[C@@H]2c1ccc(F)c(F)c1` (single isomer, unassigned) [Compound 45B, (18*S,Z)-18-(3,4-difluorophenyl)-12-hydroxy-6,9-dihydro-18H-10,17-methanobenzo[b]pyrido[1,2-f][1]oxa[5,6,9]triazacyclotridecine-11,13-dione] were 14 nM and over 200 nM.
In the same order, the values of `O=C1c2c(O)c(=O)ccn2N2CN1C/C=C\COc1ccccc1[C@H]2c1ccc(F)cc1` (single isomer, unassigned) [Compound 47A, (18*R,Z)-18-(4-fluorophenyl)-12-hydroxy-6,9-dihydro-18H-10,17-methanobenzo[b]pyrido[1,2-f][1]oxa[5,6,9]triazacyclotridecine-11,13-dione] are over 1000 nM and over 2000 nM.
`O=C1c2c(O)c(=O)ccn2N2CN1C/C=C\COc1ccccc1[C@@H]2c1ccc(F)cc1` (single isomer, unassigned) [Compound 47B, (18*S,Z)-18-(4-fluorophenyl)-12-hydroxy-6,9-dihydro-18H-10,17-methanobenzo[b]pyrido[1,2-f][1]oxa[5,6,9]triazacyclotridecine-11,13-dione]: the EC50 in data set [1] (Influenza A virus, A549, 20 h) was 15 nM. In “in vitro”, this compound registered a half-maximal cytotoxic concentration (CC50) of over 200 nM.
Take `O=C1c2c(O)c(=O)ccn2N2CN1CCCCCOc1cccc3c1[C@H]2c1ccccc1SC3` (single isomer, unassigned) [Compound 48A]: the 50% effective concentration (EC50) in data set [1] is over 1000 nM. Also, in the data set “in vitro”, the CC50 is over 2000 nM.
Take `O=C1c2c(O)c(=O)ccn2N2CN1CCCCCOc1cccc3c1[C@@H]2c1ccccc1SC3` (single isomer, unassigned) [Compound 48B]: the EC50 in data set [1] was found to be 27 nM. In “in vitro”, this compound gave a CC50 of over 2000 nM.
